Measured values reported in PMC3902948 (Nucleic Acids Research, 2013).

Experiments:
Conditions in all cases: read-out: In absence of RNA / KM; no RNA; 100 mM NaCl, 10 mM Tris pH 7.5, 2 mM MgCl2
[1] = tested on: Prp43-Ntr1(51–102)
[2] = tested on: Prp43-Ntr1(51–99)
[3] = tested on: Prp43(1–745)-Ntr1(51–110)
[4] = tested on: Prp43-Ntr1(62–110)
[5] = tested on: Prp43-Ntr1(51–110)
[6] = tested on: Prp43-Ntr1(59–110)

Nc1ncnc2c1ncn2[C@@H]1O[C@H](COP(=O)(O)OP(=O)(O)OP(=O)(O)O)[C@@H](O)[C@H]1O [ATP]
Km [1]: 17.5 ± 2.43 µM | Km [2]: 10.7 ± 1.38 µM | Km [3]: 28.3 ± 4.61 µM | Km [4]: 10.6 ± 2.18 µM | Km [5]: 39.5 ± 3.92 µM | Km [6]: 8.77 ± 1.09 µM
